The values below come from patent US20090247576A1, “ANTI-TUMOR AGENT FOR MULTIPLE MYELOMA” (Eisai R & D Management Co., Ltd., priority 2005, published 2009).

The target in this experiment is T1, FGFR3 kinase (human recombinant GST fusion protein) (Homo sapiens, UniProt P22607).
T1 construct: GST; host or cells: Sf9 insect cells, baculovirus
The experiment can be described thus: FGFR3 cell free kinase assay (33P-ATP incorporation, FlashPlate, ProQinase). In kind it is biochemical. Particulars: test substance: methanesulfonate; 1 μM [γ-33P]-ATP; substrate biotinylated Poly(Glu, Tyr)4:1; 30° C., 80 minutes; 10 points from 10 μM to 0.0003 μM; read-out: FGFR3 kinase-inhibiting activity (IC50). As for the experimental part: A FGFR3-inhibiting activity of 4-(3-chloro-4-(cyclopropylaminocarbonyl)aminophenoxy)-7-methoxy-6-quinolinecarbox amide was examined by ProQinase (Freiburg, GmbH) on our request. Specifically, the FGFR3-inhibiting activity was determined as follows. FGFR3 kinase was expressed in an insect cell (Spondoptea frugiperda 9 (Sf9)) as human recombinant GST fusion protein by the method of Baculovirus Expression System. The expressed recombinant protein was purified by affinity chromatography using GSH-agarose (from Sigma) or Ni-NTH-agarose (from Qiagen). The purity and identification of the protein were confirmed by SDS-PAGE, silver staining and western blotting using an antibody specific to FGFR3 kinase. Kinase assay was carried out as follows. […] The amount of ^33Pi incorporation was assessed by determining the radioactivity on the plate with a microplate scintillation counter (from Microbeta, Wallac). […] The kinase activity in the presence of the test substance at each concentration was assessed as percentage of the value obtained by subtracting the 0% value from the radioactivity value to the value obtained by subtracting the 0% value from the 100% value.

As a reminder, the IC50 is the point on the concentration scale where inhibition reaches its midpoint.

T1 sequence (P22607 23-806): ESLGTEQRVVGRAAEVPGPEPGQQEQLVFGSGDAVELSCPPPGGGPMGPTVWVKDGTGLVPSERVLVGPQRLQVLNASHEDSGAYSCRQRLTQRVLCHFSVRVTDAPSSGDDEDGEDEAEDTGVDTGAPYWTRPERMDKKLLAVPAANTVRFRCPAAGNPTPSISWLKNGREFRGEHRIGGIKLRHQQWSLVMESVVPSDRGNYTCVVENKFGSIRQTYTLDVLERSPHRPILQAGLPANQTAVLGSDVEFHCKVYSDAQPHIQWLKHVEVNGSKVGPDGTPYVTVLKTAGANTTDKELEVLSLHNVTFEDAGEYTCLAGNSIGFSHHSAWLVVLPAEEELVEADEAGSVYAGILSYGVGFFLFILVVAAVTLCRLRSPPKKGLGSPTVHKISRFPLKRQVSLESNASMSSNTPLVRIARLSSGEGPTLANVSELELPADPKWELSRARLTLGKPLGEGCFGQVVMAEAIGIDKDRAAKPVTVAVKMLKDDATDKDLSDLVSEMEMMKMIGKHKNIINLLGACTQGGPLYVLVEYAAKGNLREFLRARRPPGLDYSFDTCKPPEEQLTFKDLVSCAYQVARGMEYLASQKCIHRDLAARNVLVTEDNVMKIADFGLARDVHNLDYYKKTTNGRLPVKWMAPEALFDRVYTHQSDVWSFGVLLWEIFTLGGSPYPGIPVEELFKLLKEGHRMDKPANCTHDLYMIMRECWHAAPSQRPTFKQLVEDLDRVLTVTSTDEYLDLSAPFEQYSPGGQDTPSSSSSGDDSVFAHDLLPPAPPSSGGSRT

Regarding `COc1cc2nccc(Oc3ccc(NC(=O)NC4CC4)c(Cl)c3)c2cc1C(N)=O` [4-(3-chloro-4-(cyclopropylaminocarbonyl)aminophenoxy)-7-methoxy-6-quinolinecarbox amide], the IC50 was 140 nM.
